Results taken from patent US12343363B2, “Lactic acid bacterial composition for the treatment of bacterial vaginal infections by Gardnerella vaginalis and, if present, of concurrent fungal infections” (PROBIOTICAL S.P.A., priority 2016, dated 2025).
In brackets after ≈: the same amount, converted by molar mass.

Key:
Candida albicans = experiment: Single-blind clinical study of LF5 vaginal capsules compared with miconazole; assay type: in vivo, human
Description: 100 patients with vaginal candidiasis, average age of 38.0 years (range 19-61 years) randomly assigned to two groups, which resulted homogeneous, each of 50 patients treated with miconazole or LF5 dosed at ≤10^9 in vaginal capsule formulation at a dosage of 1 vaginal capsule at night for three consecutive days, according to the single-blind experimental design were treated.
No discontinuations during the treatment nor during the two weeks of post-treatment observation occurred; thus two groups of 50 observations for efficacy and tolerability are provided.

[1] = system: C. parapsilosis ATCC 22019; experiment: Miconazole broth macrodilution test (optical density); assay type: cell-based, Candida parapsilosis
Excerpt: (§1) The strains of Candida being used in the present study were purchased from the American Type Culture Collection (ATCC). Specifically, the following biotypes were used: C. albicans ATCC 10231, C. parapsilosis ATCC 22019, C. krusei ATCC 6258, C. glabrata ATCC 2001 and C. tropicalis ATCC 750 (14). The strains of lactobacilli of this study, all isolated from vaginal swabs of healthy female subjects or directly brushing the intestinal mucosa of healthy humans, were classified based on their phenotypic and genotypic characteristics: L. fermentum LF5 (DSM 32277), L. fermentum LF09 (DSM 18298), L. fermentum LF10 (DSM 19187) and L. fermentum LF11 (DSM 19188).
(§2) The probiotic strains were cultured overnight in De Man, Rogosa and Sharpe (MRS) medium (Difco, B D, Maryland). In all the experiments, fresh culture media for all the strains of Candida were used. Before the experiment, the single strains of Candida were cultured in Sabouraud Dextrose Broth (Difco, B D, Maryland), an optimal medium for yeasts, for 48 hours under aerobic conditions.
(§3) Evaluation of the fungicidal activity. The minimum inhibitory concentration (MIC) for fluconazole was determined by E-test (bioMerieux Italy, Florence) with MHE agar. The plates were incubated under aerobic conditions at 30° C. and read after 24 hours. Furthermore, since there is no specific E-test for miconazole, the MIC was determined by using the broth macrodilution method. We assessed the activity of serially diluted fluconazole and miconazole (Sigma-Aldrich, Missouri, USA) (from […] to […]) against the Candida strains. Serial dilutions of azoles were prepared in Sabouraud Dextrose Broth in the presence of strains of Candida and broths were incubated under aerobic conditions at 30° C. and then read at an optical density (DO) of 560 nm.

C. albicans ATCC 10231 = experiment: as above; assay type: cell-based, Candida albicans
Excerpt: as §1, §2, §3

C. tropicalis ATCC 750 = experiment: as above; assay type: cell-based, Candida tropicalis
Excerpt: as §1, §2, §3

C. krusei ATCC 6258 = experiment: as above; assay type: cell-based, Candida krusei
Excerpt: as §1, §2, §3

C. glabrata ATCC 2001 = experiment: as above; assay type: cell-based, Candida glabrata
Excerpt: as §1, §2, §3

[2] = system: Candida glabrata ATCC 2001; experiment: Fluconazole MIC by E-test; assay type: cell-based; settings: Nakaseomyces glabratus, ATCC2001; E_test, range 0.016-256 μg/ml; read-out: MIC (minimum inhibitory concentration)
Excerpt: as §1, §3

Candida krusei ATCC 6258 = experiment: Fluconazole MIC by E-test; assay type: cell-based; settings: Pichia kudriavzevii, ATCC6258; E_test, range 0.016-256 μg/ml; read-out: MIC (minimum inhibitory concentration)
Excerpt: as §1, §3

[3] = system: Candida parapsilosis ATCC 22019; experiment: Fluconazole MIC by E-test; assay type: cell-based; settings: Lodderomyces parapsilosis, ATCC22019; E_test, range 0.016-256 μg/ml; read-out: MIC (minimum inhibitory concentration)
Excerpt: as §1, §3

[4] = system: Candida tropicalis ATCC 750; experiment: Fluconazole MIC by E-test; assay type: cell-based; settings: ATCC750, E_test, range 0.016-256 μg/ml, read-out: MIC (minimum inhibitory concentration)
Excerpt: as §1, §3

[5] = Miconazole 1 μg/ml, broth macrodilution

With Clc1ccc(COC(Cn2ccnc2)c2ccc(Cl)cc2Cl)c(Cl)c1 (stereo not drawn) [Miconazole, miconazole] the local adverse events (Candida albicans; 50 patients per group) was 6 cases, the Positive/negative (Candida albicans; 3 days, 1 vaginal capsule at night for three consecutive days, 50 patients per group) was 3/47 and the Positive/negative (Candida albicans; Final (two weeks of post-treatment observation), 50 patients per group) was 8/42. For the same molecule, the “microbiological eradication of Candida, patients” value (Candida albicans; at the end of the three-day treatment) was 94%, the “frequency of local adverse events” value (Candida albicans; female, human, in vivo, 3 days) was 12% and the “Adverse events: Adverse” value (Candida albicans; number of 50 patients) was 47. The “Adverse events: Present” value (Candida albicans; number of 50 patients) was 3, the “Eradication: Failure” value (Candida albicans; number of 50 patients) was 3 and the “Eradication: Relapse” value (Candida albicans; number of 50 patients) was 5. The “Eradication: Success” value (Candida albicans; number of 50 patients) was 42, the “Patient's opinion about efficacy: Acceptable” value (Candida albicans; number of 50 patients) was 5 and the “Patient's opinion about efficacy: Excellent” value (Candida albicans; number of 50 patients) was 38. For the same molecule, the “Patient's opinion about efficacy: Good” value (Candida albicans; number of 50 patients) was 4, the “Patient's opinion about efficacy: None” value (Candida albicans; number of 50 patients) was 3 and the “Tolerability opinion: Acceptable” value (Candida albicans; number of 50 patients) was 3. For the same molecule, the “Tolerability opinion: Excellent” value (Candida albicans; number of 50 patients) was 44, the “Tolerability opinion: Good” value (Candida albicans; number of 50 patients) was 3 and the “Tolerability opinion: None” value (Candida albicans; number of 50 patients) was 0. The MIC ([1]; Lodderomyces parapsilosis, ATCC22019, C. parapsilosis ATCC 22019) was 1000 µg/mL (≈ 2400 µM), the “optical density, OD” value ([1]; Miconazole 1.000 μg/ml) was 0.295 and the “optical density, OD” value [1, 5] was 1.515. The “optical density, OD” value ([1]; Miconazole 2.50 μg/ml) was 1.115, the “optical density, OD” value ([1]; Miconazole 5.00 μg/ml) was 0.975 and the “optical density, OD” value ([1]; Miconazole 50 μg/ml) was 0.894. For the same molecule, the “optical density, OD” value ([1]; Miconazole 250 μg/ml) was 0.701, the “optical density, OD” value ([1]; Miconazole 300 μg/ml) was 0.415 and the “optical density, OD” value ([1]; Miconazole 500 μg/ml) was 0.314. The “optical density, OD” value (C. albicans ATCC 10231; Miconazole 1.000 μg/ml) was 1.464, the “optical density, OD” value (C. albicans ATCC 10231; [5]) was 1.906 and the “optical density, OD” value (C. albicans ATCC 10231; Miconazole 2.50 μg/ml) was 1.910. For the same molecule, the “optical density, OD” value (C. albicans ATCC 10231; Miconazole 5.00 μg/ml) was 1.901, the “optical density, OD” value (C. albicans ATCC 10231; Miconazole 50 μg/ml) was 1.905 and the “optical density, OD” value (C. albicans ATCC 10231; Miconazole 250 μg/ml) was 1.916. The “optical density, OD” value (C. albicans ATCC 10231; Miconazole 300 μg/ml) was 1.889, the “optical density, OD” value (C. albicans ATCC 10231; Miconazole 500 μg/ml) was 1.863 and the “optical density, OD” value (C. tropicalis ATCC 750; Miconazole 1.000 μg/ml) was 1.931. The “optical density, OD” value (C. tropicalis ATCC 750; [5]) was 1.950, the “optical density, OD” value (C. tropicalis ATCC 750; Miconazole 2.50 μg/ml) was 1.927 and the “optical density, OD” value (C. tropicalis ATCC 750; Miconazole 5.00 μg/ml) was 1.908. The “optical density, OD” value (C. tropicalis ATCC 750; Miconazole 50 μg/ml) was 1.846, the “optical density, OD” value (C. tropicalis ATCC 750; Miconazole 250 μg/ml) was 1.942 and the “optical density, OD” value (C. tropicalis ATCC 750; Miconazole 300 μg/ml) was 1.937. The “optical density, OD” value (C. tropicalis ATCC 750; Miconazole 500 μg/ml) was 1.903, the “optical density, OD” value (C. krusei ATCC 6258; Miconazole 1.000 μg/ml) was 1.972 and the “optical density, OD” value (C. krusei ATCC 6258; [5]) was 1.990. The “optical density, OD” value (C. krusei ATCC 6258; Miconazole 2.50 μg/ml) was 1.900, the “optical density, OD” value (C. krusei ATCC 6258; Miconazole 5.00 μg/ml) was 1.893 and the “optical density, OD” value (C. krusei ATCC 6258; Miconazole 50 μg/ml) was 1.994. The “optical density, OD” value (C. krusei ATCC 6258; Miconazole 250 μg/ml) was 2.004, the “optical density, OD” value (C. krusei ATCC 6258; Miconazole 300 μg/ml) was 1.999 and the “optical density, OD” value (C. krusei ATCC 6258; Miconazole 500 μg/ml) was 1.988. For the same molecule, the “optical density, OD” value (C. glabrata ATCC 2001; Miconazole 1.000 μg/ml) was 2.198, the “optical density, OD” value (C. glabrata ATCC 2001; [5]) was 2.260 and the “optical density, OD” value (C. glabrata ATCC 2001; Miconazole 2.50 μg/ml) was 2.260. For the same molecule, the “optical density, OD” value (C. glabrata ATCC 2001; Miconazole 5.00 μg/ml) was 2.246, the “optical density, OD” value (C. glabrata ATCC 2001; Miconazole 50 μg/ml) was 2.239 and the “optical density, OD” value (C. glabrata ATCC 2001; Miconazole 250 μg/ml) was 2.212. The “optical density, OD” value (C. glabrata ATCC 2001; Miconazole 300 μg/ml) was 2.215 and the “optical density, OD” value (C. glabrata ATCC 2001; Miconazole 500 μg/ml) was 2.213.
OC(Cn1cncn1)(Cn1cncn1)c1ccc(F)cc1F [fluconazole] was tested, and the MIC [2] was over 256 µg/mL, the MIC (Candida krusei ATCC 6258) was over 256 µg/mL and the MIC [3] was 1 µg/mL (≈ 3.27 µM). For the same molecule, the MIC [4] was over 256 µg/mL.
